SMILES strings stand for the structures.

A short description of data set [1]: Example 13: Compound 1 IV PK study in dog. As to conditions: male, beagle, plasma, 0.15 mg/kg, read-out: Dog t1/2 (converted). In kind it is in vivo, male non-naïve Beagle dogs. Here is the method:
The LC-MS methodology and conditions used to analyse Compound 1 in plasma samples from the intra-venous injection PK studies (Example 13) are described in Tables 5 to 7. A 0.15 mg/mL solution of Compound 1 in 10% DMSO, 10% Solutol HS15 and 80% Saline was prepared as follows: • 1) A stock solution of Compound 1 in DMSO was prepared. • 2) An equal volume of the Compound 1 stock solution and Solutol HS15 were combined and mixed. • 3) The above solution was diluted with normal saline to reach the target concentration. The final formulation was a clear solution. Male non-naïve beagles were used for the dog PK study. The animals had free access to food and water. […] At each time point, approximately 0.5 mL of whole blood was collected into K2EDTA tubes. Blood samples were put on ice and centrifuged at 2000 g for 5 min to obtain plasma samples within 15 minutes. Plasma samples were stored at approximately −70° C. until analyzed by LC-MS.

Data set [2] in a line: Example 13A: Compound 1 IV PK study in monkey. In kind it is in vivo, male non-naïve cynomolgus monkeys. As to conditions: 0.2 mg/kg. The procedure: A 0.2 mg/mL solution of Compound 1 in 10% DMSO, 10% Solutol HS15 and 80% Saline was prepared as follows: • 1) A stock solution of Compound 1 in DMSO was prepared. • 2) An equal volume of the Compound 1 stock solution and Solutol HS15 were combined and mixed. • 3) The above solution was diluted with normal saline to reach the target concentration. The final formulation was a clear solution. Male non-naïve Cyno Monkeys with were used for the monkey PK study. The animals had free access to food and water. The Compound 1 solution described above was administered via intravenous injection (1 mL/kg) to each animal (n=3) to achieve a 0.2 mg/kg dose. At each time point, approximately 0.5 mL whole blood was collected into K2EDTA tubes. Blood samples were put on to ice and centrifuged at 2000 g for 5 min to obtain plasma sample within 15 minutes. Plasma samples were stored at approximately −70° C. until analyzed by LC-MS.

The nature of data set [3]: Allometric scaling of multi-species PK data to human.
Data set [4] can be described thus: Example 10: Compound 1 (Form A) aqueous suspension SC PK study in rat. In kind it is in vivo, male Sprague Dawley rats. The note with it: 10 mg/kg. Here is the method:
An aqueous suspension of Compound 1 free form (crystalline Form A) in a 0.9% NaCl+0.5% polysorbate 80 vehicle at a concentration of 3 mg/mL was prepared as follows: • 1) Vehicle (0.9% w/w NaCl and 0.5% w/w polysorbate 80) was prepared by dissolving NaCl and polysorbate 80 in water. • 2) An appropriate amount of Compound 1 free form was weighed and added to the vehicle. • 3) The mixture was vortexed for 1 minute, stirred for 10 minutes and then sonicated for 15 minutes. • 4) The final dosing formulation was a homogenous white cloudy suspension.
Male Sprague Dawley (SD) rats with ~230-250 g body weight (ages 6-8 weeks) were used for the pharmacokinetic study. The animals had free access to food and water.
The Compound 1 suspension described above was administered via sub-cutaneous injection to each animal group (n=3) with a dosing volume of 3.33 mL/kg to achieve a 10 mg/kg dose.
At each time point, approximately 200 μL whole blood was collected in a K2EDTA tube via the jugular vein. Blood samples were put on ice and centrifuged at 2000 g for 5 min to obtain a plasma sample within 15 minutes. Plasma samples were stored at approximately −70° C. until analyzed by LC-MS.

Data set [5] deals with carbonic anhydrase I and/or carbonic anhydrase II. Kind of data set: Carbonic anhydrase inhibition. Format: biochemical. The source says: Carbonic anhydrase inhibition can be measured using a carbonic anhydrase I assay as described in Katritzky et al. (J. Med. Chem. 1987, 30:2058) and a carbonic anhydrase […] assay as described in lyer et al. (J. Biomol. Screen 2006, 11:782).

The nature of data set [6]: Example 5: comparative pritelivir solution PK study in rat following IV/SC administration. The note with it: for AUC(0-t): male, Sprague Dawley, plasma, solution, n = 3. In kind it is in vivo, male Sprague Dawley rats. The procedure:
A solution of crystalline pritelivir free base (dihydrate) in 5% NMP, 5% Solutol HS15 & 90% saline at a concentration of 0.5 mg/mL was prepared as follows: • 1) A stock solution of 10 mg/mL of pritelivir (dihydrate) in NMP was prepared. • 2) Equal volumes of the pritelivir stock solution and Solutol HS15 were combined and mixed. • 3) The above solution was diluted with normal saline to reach target 0.5 mg/mL pritelivir concentration. The formulation was a clear solution.
Male Sprague Dawley (SD) rats with ~300 g body weight (ages 6-8 weeks) were used for the pharmacokinetic study. The animals had free access to food and water. The pritelivir solution described above was administered via intravenous injection to animals (n=3) with a dosing volume of 2 mL/kg to achieve a 1 mg/kg dose. For subcutaneous injection, the dosing volume of 10 mL/kg was utilized to achieve a 5 mg/kg dose.
At each time point, approximately 200 μL whole blood was collected in a K2EDTA tube via the jugular vein. Blood samples were put on ice and centrifuged at 2000 g for 5 min to obtain a plasma sample within 15 minutes. Plasma samples were stored at approximately −70° C. until analyzed by LC-MS according to the method described above.

The subject of data set [7] is plasma protein. The note with it: cited from earlier work.
Data set [8] can be described thus: Example 2: pritelivir aqueous suspension SC PK study in rat at lower dose. The note with it: aqueous suspension (dihydrate), 10 mg/kg. In kind it is in vivo, male Sprague Dawley rats. The procedure: The LC-MS methodology and conditions used to analyse pritelivir in plasma samples from the PK studies described in Examples 1 to 5 are provided in Table 1.
An aqueous suspension of crystalline pritelivir free base (dihydrate) in a 0.9% NaCl+0.5% polysorbate 80 vehicle at a concentration of 3.0 mg/mL was prepared as follows: • 1) Vehicle (0.9% w/w NaCl and 0.5% w/w polysorbate 80) was prepared by dissolving NaCl and polysorbate 80 in water. • 2) Appropriate amount of crystalline pritelivir free base (dihydrate) was weighed and added to the vehicle. • 3) Mixture was stirred for 15 minutes, then vortexed for 1 minute and then sonicated for 10 minutes. • 4) The final dosing formulation was a homogenous white cloudy suspension.
Male SD rats with 230-250 g body weight, ages 6-8 weeks were used for the rat PK study. The animals had free access to food and water. The prepared suspension was administered via subcutaneous injection to each animal group (n=3) with a dosing volume of 3.33 mL/kg to achieve a 10 mg/kg dose.
At each time point, approximately 200 μL whole blood was collected via the jugular vein into K2EDTA tubes. Blood samples were put on to ice and centrifuged at 2000 g for 5 min to obtain plasma sample within 15 minutes. Plasma samples were stored at approximately −70° C. until analyzed by LC-MS.

On to `Cc1nc(N2CCCN(c3ccc(-c4cc(F)ccc4F)cc3)C2=O)sc1S(N)(=O)=O` [Compound 1, 2-(3-(2′,5′-difluoro-[1,1′-biphenyl]-4-yl)-2-oxotetrahydropyrimidin-1(2H)-yl)-4-methylthiazole-5-sulfonamide], for which the half-life in data set [1] was 34.9 h. In data set [2], this molecule yielded a Clearance of 4 mL/h/kg and a half-life of 72 h. The predicted human clearance in data set [3] was 0.06 L/h. Also, in data set [4], the “prolonged exposure out to” value is reported as “at least 58 days” and the “variability in plasma concentrations” value is “low”. In addition, in data set [5], the carbonic anhydrase inhibition result is listed as “no or low levels of carbonic anhydrase inhibition”.

In the case of `Cc1nc(N(C)C(=O)Cc2ccc(-c3ccccn3)cc2)sc1S(N)(=O)=O` [pritelivir, N-methyl-N-(4-methyl-5-sulfamoyl-1,3-thiazol-2-yl)-2-[4-(pyridin-2-yl)phenyl]acetamide], in data set [6] (intravenous (IV), 1 mg/kg), the F came to 100% and the AUC(0-t) was found to be 31.8 µg·h/mL. For the same molecule, the AUC(0-t) in data set [6] (subcutaneous (SC), 5 mg/kg) worked out at 185 µg·h/mL. In addition, in data set [7], the protein binding is reported as 97-98%. The “prolonged exposure out to (length of the study)” value in data set [8] is on record as “at least 144 hours”.

(Values after US20260216057A1, “PHARMACEUTICAL COMPOSITIONS FOR HERPES VIRUS” (priority 2022, published 2026).)
